Results: publication PMC9272924, “Design and synthesis of thiazolidine-2,4-diones hybrids with 1,2-dihydroquinolones and 2-oxindoles as potential VEGFR-2 inhibitors: in-vitro anticancer evaluation and in-silico studies” (Journal of Enzyme Inhibition and Medicinal Chemistry, 2022)
Where “and” joins values, the source holds several entries; their conditions need not be identical. Identical values can stand only once. Entries after “also recorded” stand apart in the source; their conditions may differ.

Experiments:
[1] = In vitro anti-proliferative activity (MTT assay), Caco-2; format: cell-based; settings: African green monkey (Vero); human (Caco-2); SI = Cytotoxicity against Vero cells / Cytotoxicity against Caco-2 cell line; read-out: Selectivity index (SI) (Caco-2)
Protocol: (§1) Target quinolines 8a–c, indolines 12a and 12b were assessed for their potential anti-proliferative effects against a panel of three different cancer cell lines; colon (Caco-2), hepatocellular (HepG2), and breast (MDA-MB-231) cancer cell lines using standard MTT assay protocol. The obtained results confirmed the anti-cancer effects of the tested compounds against the three types of cancerous cell lines, expressed as the median growth inhibitory concentration (IC50), and were presented in Table 1.
(§2) Anti-proliferative activities of the experimented compounds were assessed against Caco-2, HepG-2, and MDA-MB-231 cell lines using MTT assay protocol[54]^,[74] as described in Supplementary data. […]
(§3) a- Mammalian cell lines culture
(§4) WISH, CaCo-2, and A549 cell lines were cultured on DMEM media, meanwhile MDA-MB-231 and hepG-2 cell line were cultured on RBMI media. The cultured media were supplemented with 200 mM L-glutamine, 10.0% fetal bovine serum (Lonza), and 1.0% penicillin/streptomycin. Cells were seeded into 25.0 cm tissue culture flasks and incubated at 37◦C in a 5.0% CO2 incubator for 24 h or till confluency.
(§5) The safety profiles of the tested compounds were checked on one non-cancerous cell line (Vero) to […]
(§6) of 100.0 µl of 6×10^4 cell/ml cells was seeded into each well of a 96-well plate and then the plates were incubated at 37 °C in a humidified 5.0% CO2 incubator for 24 h. At the end of incubation period, the exhausted medium was replaced with 100.0 µl of different concentrations of the designated treatment (prepared in RPMI medium starting from 1.0 mM). The inoculated plates were incubated at the same growth conditions for another 24 h. At the end of incubation, cellular viability was assessed using MTS assay kit (Promega) according to the manual instruction. c- In-vitro anticancer activity
(§7) Anticancer activities of the tested compounds against CaCo-2, MDA-MB-231, and hepG-2 cell lines were quantified using MTS assay kit (Promega) as described by the Manufacturer. d- Selectivity index (SI)
(§8) The selectivity index values of the tested compounds on cancer cells were calculated as described by Koch et al., with slight modifications; SI=IC50nc/IC50cc, where IC50nc: the IC 50 value of the tested compound on normal cells and IC 50cc: IC50 of the te sted compound on cancer cell line . […]

Caco-2 = experiment: as above; format: cell-based; settings: Homo sapiens, Caco-2; MTT assay; mean of three replicates
Protocol: as §1, §2, §3, §4, §5, §6, §7, §8

HepG2 = experiment: In vitro anti-proliferative activity (MTT assay), HepG2; format: cell-based; settings: for IC50: Homo sapiens, HepG2, MTT assay, mean of three replicates; for Selectivity index (SI) (HepG2): SI = Cytotoxicity against Vero cells / Cytotoxicity against HepG2 cell line
Protocol: as §1, §2, §3, §4, §5, §6, §7, §8

MDA-MB-231 = experiment: In vitro anti-proliferative activity (MTT assay), MDA-MB-231; format: cell-based; settings: for IC50: Homo sapiens, MDA-MB-231, MTT assay, mean of three replicates; for Selectivity index (SI) (MDA-MB-231): SI = Cytotoxicity against Vero cells / Cytotoxicity against MDA-MB-231 cell line
Protocol: as §1, §2, §3, §4, §5, §6, §7, §8

VEGFR-2 = molecular target: T1, VEGFR-2 (Homo sapiens, UniProt P35968); experiment: In vitro VEGFR-2 kinase assay (VEGFR-2 ELISA kit); format: biochemical; settings: for HillSlope, best-fit value, VEGFR-2 inhibition / LogIC50, best-fit value, VEGFR-2 inhibition: raw data curve fit, % remaining activity
T1 construct: purchased
Excerpt: To explore the molecular mechanism of the tested compounds as anticancer agents, the compounds were further evaluated to assess their enzymatic inhibitory potential against VEGFR-2.
VEGFR-2 inhibitory activity of the experimented compounds was preceded using a VEGFR-2 ELISA kit as reported and described in Supplementary data.

[2] = Safety assay: in-vitro viability on non-cancerous Vero cell line; format: cell-based; settings: African green monkey, Vero cells (non-cancerous cell line), MTT assay, read-out: Cytotoxicity against Vero (IC50 µM)
Protocol: An in-vitro viability test was used to investigate the safety patterns of the tested compounds at different concentrations (1.0 mM/mL to 50 µM/mL). The Vero cell line was used as a non-cancerous cell line model to investigate the safety of the synthesised compounds. […] Such values were very high in comparison to the corresponding values on cancer cell lines, which reflect the high in vitro safety profile of the tested members towards non-cancerous cell lines (Table 2). […]
as §3, §4, §5
as §6, with “c- In-vitro anticancer activity” left out
d- Selectivity index (SI)
as §8

Caco-2 cells = experiment: Cell migration (in-vitro scratch / wound healing) assay; format: cell-based
Excerpt: The potential of compound 12a to inhibit the ability of Caco-2 cells to migrate and heal was investigated through the in-vitro scratch assay which is a low-cost easy and well-developed method. The basic concept of this method involves the generation of a scratch in a cancer cell line monolayer, recording the diameter at the beginning, and at regular intervals during cell migration to close that scratch. The obtained results of the treated cell line are then compared to the untreated cell line. Images of scratched areas from the time points; 0, 24 are illustrated in Figure 3.
Regarding the representative control, the scratch was completely closed within 24 h (Figure 3(C)). […] This significant morphological change could be linked to the incidence of apoptosis in the treated cancer cells.
Cell migration assay was fulfilled according to the reported protocol as described[78] in Supplementary data. […]
as §3
as §4, with “confluency. […]” for “confluency.”
e- Wound healing assay (Migration assay)
CaCo-2 cells were grown to 95.0% confluency in a complete DMEM medium and then the wounds were formed using a plastic tip. After washing with pre -warmed PBS, the cells were incubated in the specific medium or the 12a treatment. After incubation at 37°C and 5.0% CO 2 for 24h, the cells were washed with PBS and the wounds distance was determined as the scratch width of the treated and untreated groups using […]

Bcl2 = experiment: Gene expression by RT-qPCR in Caco-2 cells, Bcl2; format: cell-based; settings: Caco-2 treated with 2 µM (IC50 value) of 12a, compared to control cells
Excerpt: (§9) These findings indicate the efficiency of compound 12a in the induction of apoptosis (Figure 4).
(§10) The molecular anticancer mode of action of 12a was investigated by screening their ability to control the gene expression levels of Bcl2, Bcl-xl, TGF and Survivin genes as reported[79] in Supplementary data. […]
(§11) f- Gene expression pattern alternation of cancer cell after 12a treatment The molecular anticancer mode of action of 12a was investigated by screening their ability to affect the gene expression levels of Bcl2, Bcl-xl, TGF and Survivin genes using specific forward and reverse primers and RTq-PCR technique (Table 1) in CaCo-2 cells (chosen as the most sensitive cancer cell line). After cellular treatment, CaCo-2 cell line was cultured into 12 well plates (6×10^3 cell/ml) for 24 h. with the sub- […]
(§12) After treatment, total RNA extraction was performed using RNA extraction kit (Qiagen, Germany). Then, 1 ug of the obtained RNA was used to synthesiz cDNA using cDNA synthesis kit (Promega Corp., Madison, WI) as recommended by the manufacturer. Simultaneously, GAPDH forward and reverse primers (Table 1) were used to amplify the house keeping gene as internal control for standardization of PCR products. The RTq-PCR was done using SYBR Green dye (QuantiTect SYBR Green PCR Kits) and Light Cycler fluorimeter (Bio-RAD S1000 Tm thermal cycler). […]

Bcl-xl = experiment: Gene expression by RT-qPCR in Caco-2 cells, Bcl-xl; format: cell-based; settings: Caco-2 treated with 2 µM (IC50 value) of 12a, compared to control cells
Excerpt: as §9, §10, §11, §12

Survivin = experiment: Gene expression by RT-qPCR in Caco-2 cells, Survivin; format: cell-based; settings: Caco-2 treated with 2 µM (IC50 value) of 12a, compared to control cells
Excerpt: as §9, §10, §11, §12

TGF = experiment: Gene expression by RT-qPCR in Caco-2 cells, TGF; format: cell-based; settings: Caco-2 treated with 2 µM (IC50 value) of 12a, compared to control cells
Excerpt: as §9, §10, §11, §12

T1 sequence (P35968 20-1356): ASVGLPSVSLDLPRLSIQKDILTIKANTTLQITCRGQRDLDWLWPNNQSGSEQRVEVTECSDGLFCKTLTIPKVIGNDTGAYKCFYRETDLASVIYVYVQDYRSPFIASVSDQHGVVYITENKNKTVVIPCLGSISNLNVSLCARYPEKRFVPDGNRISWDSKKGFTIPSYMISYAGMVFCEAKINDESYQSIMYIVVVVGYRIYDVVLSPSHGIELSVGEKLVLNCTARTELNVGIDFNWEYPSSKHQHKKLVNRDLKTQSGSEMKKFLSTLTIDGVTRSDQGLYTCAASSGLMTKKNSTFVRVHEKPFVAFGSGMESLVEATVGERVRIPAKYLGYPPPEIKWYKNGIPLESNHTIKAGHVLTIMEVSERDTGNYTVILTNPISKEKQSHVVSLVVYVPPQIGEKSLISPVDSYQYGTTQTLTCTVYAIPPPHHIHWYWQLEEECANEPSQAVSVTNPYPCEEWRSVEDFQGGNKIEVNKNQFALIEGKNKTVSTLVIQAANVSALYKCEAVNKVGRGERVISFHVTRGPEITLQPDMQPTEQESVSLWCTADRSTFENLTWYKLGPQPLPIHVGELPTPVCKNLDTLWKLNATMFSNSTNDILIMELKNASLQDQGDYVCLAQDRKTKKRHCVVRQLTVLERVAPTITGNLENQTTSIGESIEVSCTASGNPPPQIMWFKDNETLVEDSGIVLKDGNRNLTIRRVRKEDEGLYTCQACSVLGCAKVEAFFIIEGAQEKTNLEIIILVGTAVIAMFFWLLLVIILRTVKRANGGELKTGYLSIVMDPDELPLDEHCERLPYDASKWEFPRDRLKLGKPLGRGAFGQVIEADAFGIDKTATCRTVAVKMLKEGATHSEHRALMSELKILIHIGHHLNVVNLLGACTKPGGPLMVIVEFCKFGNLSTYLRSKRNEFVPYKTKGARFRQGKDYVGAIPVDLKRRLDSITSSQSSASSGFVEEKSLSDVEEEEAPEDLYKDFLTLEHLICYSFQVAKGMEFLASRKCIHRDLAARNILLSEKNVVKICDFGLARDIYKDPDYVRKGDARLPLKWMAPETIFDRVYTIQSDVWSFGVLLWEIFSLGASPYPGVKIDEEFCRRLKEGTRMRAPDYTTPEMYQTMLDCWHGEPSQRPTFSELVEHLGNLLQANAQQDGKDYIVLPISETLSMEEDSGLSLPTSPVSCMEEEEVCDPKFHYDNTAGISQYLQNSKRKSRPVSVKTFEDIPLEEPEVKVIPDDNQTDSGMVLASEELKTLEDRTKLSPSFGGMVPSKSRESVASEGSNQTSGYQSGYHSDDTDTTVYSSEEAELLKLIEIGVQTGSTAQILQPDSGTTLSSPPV

Structure (SMILES) | selectivity ratio [1] | IC50 (Caco-2) [µM] | IC50 (HepG2) [µM] | Selectivity index (SI) (HepG2) (HepG2) | IC50 (MDA-MB-231) [µM] | Selectivity index (SI) (MDA-MB-231) (MDA-MB-231) | IC50 (VEGFR-2) [µM] | HillSlope, best-fit value, VEGFR-2 inhibition (VEGFR-2) | LogIC50, best-fit value, VEGFR-2 inhibition (VEGFR-2) | IC50 at 24 h [2] [µM] | wound diameter of treated Caco-2 cells (Caco-2 cells; 12a at sub IC50 value (1 µM), 24 h, 0.348 mm at 0 h, control scratch completely closed within 24 h) [mm] | scratch closure and cancer cell migration (Caco-2 cells; Caco-2, 1 µM, 24 h) | Caco-2 cell shape (Caco-2 cells; within 24 h) | Bcl2 gene expression (Bcl2) | Bcl-xl gene expression (Bcl-xl) | Survivin gene expression (Survivin) | TGF gene expression (TGF)
Cc1ccc(NC(=O)CN2C(=O)SC(=Cc3cc4ccccc4[nH]c3=O)C2=O)cc1 [Compound 8a, 2–(2,4-Dioxo-5-((2-oxo-1,2-dihydroquinolin-3-yl)methylene)thiazolidin-3-yl)-N-(p-tolyl)acetamide] | 177 | 9 ± 0.001 | 86 ± 0.001 | 18.49 | 150 ± 0.01 | 10.60 | 0.0966 | -0.4030 | 1.985 Log (nM) | 1590 ± 0.068 | – | – | – | – | – | – | –
COc1cccc2c1C(=O)c1c(O)c3c(c(O)c1C2=O)C[C@@](O)(C(=O)CO)C[C@@H]3O[C@H]1C[C@H](N)[C@H](O)[C@H](C)O1 [Doxorubicin, reference compound] | – | 3.46 ± 0.003 | 1.15 ± 0.02 | – | 0.98 ± 0.01 | – | – | – | – | – | – | – | – | – | – | – | –
O=C(CN1C(=O)SC(=Cc2cc3ccccc3[nH]c2=O)C1=O)Nc1ccccc1[N+](=O)[O-] [Compound 8c, 2–(2,4-Dioxo-5-((2-oxo-1,2-dihydroquinolin-3-yl)methylene)thiazolidin-3-yl)-N-(2-nitrophenyl)acetamide] | 4.33 | 90 ± 0.004 | 156 ± 0.004 | 2.50 | 70 ± 0.009 | 5.57 | 0.318 | -0.3460 | 2.502 Log (nM) | 390 ± 0.02 | – | – | – | – | – | – | –
Cc1ccc(NC(=O)CN2C(=O)S/C(=C3\C(=O)Nc4ccccc43)C2=O)cc1 [Compound 12a, (Z)-2–(2,4-dioxo-5–(2-oxoindolin-3-ylidene)thiazolidin-3-yl)-N-(p-tolyl)acetamide] | 365 | 2 ± 0.005 | 10 ± 0.001 | 73.00 | 40 ± 0.002 | 18 and 18.25 | – | -0.4584 | 2.066 Log (nM) | 730 ± 0.015 | 0.335 | significantly inhibited the scratch closure and cancer cell migration; also recorded: significantly inhibited the ability of cancer cells to migrate and heal | changed the Caco-2 cell shape from an irregular into the normalised round form; also recorded: changed the cancer cell shape from irregular to a normalised round form | significant down-regulation; also recorded: downregulate | significant down-regulation; also recorded: downregulate | significant down-regulation; also recorded: downregulate | upregulation; also recorded: upregulate
O=C(CN1C(=O)S/C(=C2\C(=O)Nc3ccccc32)C1=O)Nc1ccccc1[N+](=O)[O-] [Compound 12b, (Z)-2–(2,4-dioxo-5–(2-oxoindolin-3-ylidene)thiazolidin-3-yl)-N-(2-nitrophenyl) acetamide] | 4 | 120 ± 0.001 | 49 ± 0.008 | 9.80 | 37 ± 0.002 | 12.97 | 0.0841 | -0.2985 | 1.925 Log (nM) | 480 ± 40 | – | – | – | – | – | – | –
O=C(CN1C(=O)SC(=Cc2cc3ccccc3[nH]c2=O)C1=O)NCCc1ccccc1 [Compound 8b, 2–(2,4-Dioxo-5-((2-oxo-1,2-dihydroquinolin-3-yl)methylene)thiazolidin-3-yl)-N-phenethylacetamide] | 5.93 | 150 ± 0.013 | 60 ± 0.008 | 14.83 | 60 ± 0.003 | 14.83 | 0.0874 | -0.3502 | 1.941 Log (nM) | 890 ± 0.015 | – | – | – | – | – | – | –
